The OligoGym collection
Values joined by “and” are separate entries in the source; they are usually repeats but may differ in a detail not shown here. Equal values may be shown once. HELM strings list units from the 5' end as sugar, base in round brackets, then linkage (d deoxyribose, r ribose, m 2'-O-methyl, p phosphodiester). Methylation of C is not given here. [moe] = 2'-O-(2-methoxyethyl) (MOE); [cEt] = constrained ethyl (cEt); [sp] = phosphorothioate linkage

Biological target: HBV
Conditions: ASO

Substance | target mRNA inhibition (HepG2, 0.07 µM) | further results
RNA1{[moe](C)[sp].[moe](T)[sp].[moe](G)[sp].d(A)[sp].d(A)[sp].d(C)[sp].d(A)[sp].d(A)[sp].d(A)[sp].d(T)[sp].d(G)[sp].d(G)[sp].d(C)[sp].[cEt](A)[sp].[cEt](C)[sp].[cEt](T)}$$$$V2.0 | 64% and 74% | 
RNA1{[moe](G)[sp].[cEt](A)[sp].[cEt](G)[sp].d(A)[sp].d(G)[sp].d(A)[sp].d(A)[sp].d(G)[sp].d(T)[sp].d(C)[sp].d(C)[sp].d(A)[sp].d(C)[sp].[cEt](C)[sp].[cEt](A)[sp].[moe](C)}$$$$V2.0 | 65% and 63% | 
RNA1{[moe](G)[sp].[cEt](A)[sp].[cEt](G)[sp].d(G)[sp].d(C)[sp].d(C)[sp].d(C)[sp].d(A)[sp].d(C)[sp].d(T)[sp].d(C)[sp].d(C)[sp].d(C)[sp].[cEt](A)[sp].[cEt](T)[sp].[moe](A)}$$$$V2.0 |  | target mRNA inhibition (HepG2, 0.0092593 µM): 29%; target mRNA inhibition (HepG2, 0.0277778 µM): 63%; target mRNA inhibition (HepG2, 0.0833333 µM): 87%; target mRNA inhibition (HepG2, 0.25 µM): 85%
RNA1{[moe](G)[sp].[cEt](A)[sp].[cEt](G)[sp].d(G)[sp].d(T)[sp].d(G)[sp].d(A)[sp].d(A)[sp].d(G)[sp].d(C)[sp].d(G)[sp].d(A)[sp].d(A)[sp].[cEt](G)[sp].[cEt](T)[sp].[moe](G)}$$$$V2.0 | 71% | 
RNA1{[moe](G)[sp].[cEt](A)[sp].d(A)[sp].d(C)[sp].d(C)[sp].d(A)[sp].d(C)[sp].d(T)[sp].d(G)[sp].d(A)[sp].d(A)[sp].d(C)[sp].[cEt](A)[sp].[moe](A)[sp].[cEt](A)[sp].[moe](T)}$$$$V2.0 | 49% and 43% | 
RNA1{[moe](G)[sp].[cEt](A)[sp].d(G)[sp].d(A)[sp].d(G)[sp].d(A)[sp].d(A)[sp].d(G)[sp].d(T)[sp].d(C)[sp].d(C)[sp].d(A)[sp].[cEt](C)[sp].[moe](C)[sp].[cEt](A)[sp].[moe](C)}$$$$V2.0 | 42% and 56% | 
RNA1{[moe](G)[sp].[cEt](A)[sp].d(T)[sp].d(G)[sp].d(A)[sp].d(G)[sp].d(G)[sp].d(C)[sp].d(A)[sp].d(T)[sp].d(A)[sp].d(G)[sp].[cEt](C)[sp].[moe](A)[sp].[cEt](G)[sp].[moe](C)}$$$$V2.0 | 70% and 66% | 
RNA1{[moe](G)[sp].[cEt](C)[sp].[cEt](A)[sp].d(G)[sp].d(A)[sp].d(G)[sp].d(G)[sp].d(T)[sp].d(G)[sp].d(A)[sp].d(A)[sp].d(G)[sp].d(C)[sp].[cEt](G)[sp].[cEt](A)[sp].[moe](A)}$$$$V2.0 | 70% | 
RNA1{[moe](G)[sp].[cEt](C)[sp].d(A)[sp].d(T)[sp].d(A)[sp].d(G)[sp].d(C)[sp].d(A)[sp].d(G)[sp].d(C)[sp].d(A)[sp].d(G)[sp].[cEt](G)[sp].[moe](A)[sp].[cEt](T)[sp].[moe](G)}$$$$V2.0 | 76% and 78% | 
RNA1{[moe](G)[sp].[cEt](G)[sp].[cEt](C)[sp].d(A)[sp].d(C)[sp].d(A)[sp].d(G)[sp].d(C)[sp].d(T)[sp].d(T)[sp].d(G)[sp].d(G)[sp].d(A)[sp].[cEt](G)[sp].[cEt](G)[sp].[moe](C)}$$$$V2.0 | 36% and 39% | 
RNA1{[moe](G)[sp].[cEt](T)[sp].[cEt](G)[sp].d(A)[sp].d(A)[sp].d(G)[sp].d(C)[sp].d(G)[sp].d(A)[sp].d(A)[sp].d(G)[sp].d(T)[sp].d(G)[sp].[cEt](C)[sp].[cEt](A)[sp].[moe](C)}$$$$V2.0 | 68% and 75% | 
RNA1{[moe](G)[sp].[cEt](T)[sp].d(C)[sp].d(C)[sp].d(A)[sp].d(C)[sp].d(C)[sp].d(A)[sp].d(C)[sp].d(G)[sp].d(A)[sp].d(G)[sp].[cEt](T)[sp].[moe](C)[sp].[cEt](T)[sp].[moe](A)}$$$$V2.0 | 51% and 38% | 
RNA1{[moe](G)[sp].[cEt](T)[sp].d(G)[sp].d(A)[sp].d(A)[sp].d(G)[sp].d(C)[sp].d(G)[sp].d(A)[sp].d(A)[sp].d(G)[sp].d(T)[sp].[cEt](G)[sp].[moe](C)[sp].[cEt](A)[sp].[moe](C)}$$$$V2.0 | 81% and 80% | target mRNA inhibition (HepG2, 0.0092593 µM): 18%; target mRNA inhibition (HepG2, 0.0277778 µM): 36%; target mRNA inhibition (HepG2, 0.0833333 µM): 75%; target mRNA inhibition (HepG2, 0.25 µM): 88%
RNA1{[moe](G)[sp].[cEt](T)[sp].d(G)[sp].d(C)[sp].d(A)[sp].d(G)[sp].d(A)[sp].d(G)[sp].d(G)[sp].d(T)[sp].d(G)[sp].d(A)[sp].[cEt](A)[sp].[moe](G)[sp].[cEt](C)[sp].[moe](G)}$$$$V2.0 | 74% and 83% | target mRNA inhibition (HepG2, 0.0092593 µM): 14%; target mRNA inhibition (HepG2, 0.0277778 µM): 33%; target mRNA inhibition (HepG2, 0.0833333 µM): 70%; target mRNA inhibition (HepG2, 0.25 µM): 77%
RNA1{[moe](G)[sp].[moe](A)[sp].[moe](A)[sp].[moe](C)[sp].[moe](C)[sp].[moe](A)[sp].d(C)[sp].d(T)[sp].d(G)[sp].d(A)[sp].d(A)[sp].d(C)[sp].d(A)[sp].d(A)[sp].d(A)[sp].[moe](T)[sp].[moe](G)}$$$$V2.0 | 53% and 43% | 
RNA1{[moe](G)[sp].[moe](A)[sp].[moe](A)[sp].[moe](C)[sp].[moe](T)[sp].[moe](G)[sp].d(G)[sp].d(A)[sp].d(G)[sp].d(C)[sp].d(C)[sp].d(A)[sp].d(C)[sp].d(C)[sp].d(A)[sp].[moe](G)[sp].[moe](C)}$$$$V2.0 | 55% and 48% | 
RNA1{[moe](G)[sp].[moe](A)[sp].[moe](A)[sp].[moe](C)[sp].d(C)[sp].d(A)[sp].d(C)[sp].d(T)[sp].d(G)[sp].d(A)[sp].d(A)[sp].d(C)[sp].d(A)[sp].[moe](A)[sp].[moe](A)[sp].[moe](T)[sp].[moe](G)}$$$$V2.0 | 33% and 45% | 
RNA1{[moe](G)[sp].[moe](A)[sp].[moe](A)[sp].[moe](C)[sp].d(T)[sp].d(G)[sp].d(G)[sp].d(A)[sp].d(G)[sp].d(C)[sp].d(C)[sp].d(A)[sp].d(C)[sp].[moe](C)[sp].[moe](A)[sp].[moe](G)}$$$$V2.0 | 46% and 53% | 
RNA1{[moe](G)[sp].[moe](A)[sp].[moe](A)[sp].[moe](G)[sp].[moe](C)[sp].d(G)[sp].d(A)[sp].d(A)[sp].d(G)[sp].d(T)[sp].d(G)[sp].d(C)[sp].d(A)[sp].d(C)[sp].[moe](A)[sp].[moe](C)}$$$$V2.0 | 70% and 67% | 
RNA1{[moe](G)[sp].[moe](A)[sp].[moe](A)[sp].[moe](G)[sp].d(C)[sp].d(G)[sp].d(A)[sp].d(A)[sp].d(G)[sp].d(T)[sp].d(G)[sp].d(C)[sp].d(A)[sp].[moe](C)[sp].[moe](A)[sp].[moe](C)}$$$$V2.0 | 48% and 59% | 
RNA1{[moe](G)[sp].[moe](A)[sp].[moe](A)[sp].[moe](G)[sp].d(T)[sp].d(C)[sp].d(C)[sp].d(A)[sp].d(C)[sp].d(C)[sp].d(A)[sp].d(C)[sp].d(G)[sp].[moe](A)[sp].[moe](G)[sp].[moe](T)[sp].[moe](C)}$$$$V2.0 | 48% and 36% | 
RNA1{[moe](G)[sp].[moe](A)[sp].[moe](A)[sp].d(C)[sp].d(A)[sp].d(A)[sp].d(A)[sp].d(T)[sp].d(G)[sp].d(G)[sp].d(C)[sp].d(A)[sp].d(C)[sp].[cEt](T)[sp].[cEt](A)[sp].[cEt](G)}$$$$V2.0 | 80% and 81% | target mRNA inhibition (HepG2, 0.0092593 µM): 15%; target mRNA inhibition (HepG2, 0.0277778 µM): 40%; target mRNA inhibition (HepG2, 0.0833333 µM): 69%; target mRNA inhibition (HepG2, 0.25 µM): 86%
